In brackets after ≈: the same amount, converted by molar mass.
How the values were obtained:
[1] = system: Escherichia coli; test: microbe, parasite or virus in culture
Description: Antimicrobial activity against Escherichia coli expressing beta-lactamase PER-4 by CLSI broth microdilution method

[2] = system: Escherichia coli; test: microbe, parasite or virus in culture; remark: listed apart in the source
Description: Antimicrobial activity against Escherichia coli expressing beta-lactamase VEB-4 by CLSI broth microdilution method

[3] = system: Escherichia coli; test: microbe, parasite or virus in culture; remark: listed apart in the source
Description: Antimicrobial activity against Escherichia coli expressing beta-lactamase Oxa-51 by CLSI broth microdilution method

[4] = Chemical stability in pH 7.4 potassium phosphate buffer assessed as half life for compound hydrolysis at 37 degC by UPLC and mass spectrometry; assay type: physicochemical
[5] = target: T1, GABA A receptor alpha-2/beta-2/gamma-2 (Homo sapiens, UniProt P18507+P47869+P47870); test: Inhibition of recombinant human GABA A alpha2beta2gamma2 receptor expressed in CHO-K1 cells incubated at room temperature for 15 mins before the GABA addition fluorescence spectrometry; assay type: cell-based
T1 sequence (P47870 whole entry): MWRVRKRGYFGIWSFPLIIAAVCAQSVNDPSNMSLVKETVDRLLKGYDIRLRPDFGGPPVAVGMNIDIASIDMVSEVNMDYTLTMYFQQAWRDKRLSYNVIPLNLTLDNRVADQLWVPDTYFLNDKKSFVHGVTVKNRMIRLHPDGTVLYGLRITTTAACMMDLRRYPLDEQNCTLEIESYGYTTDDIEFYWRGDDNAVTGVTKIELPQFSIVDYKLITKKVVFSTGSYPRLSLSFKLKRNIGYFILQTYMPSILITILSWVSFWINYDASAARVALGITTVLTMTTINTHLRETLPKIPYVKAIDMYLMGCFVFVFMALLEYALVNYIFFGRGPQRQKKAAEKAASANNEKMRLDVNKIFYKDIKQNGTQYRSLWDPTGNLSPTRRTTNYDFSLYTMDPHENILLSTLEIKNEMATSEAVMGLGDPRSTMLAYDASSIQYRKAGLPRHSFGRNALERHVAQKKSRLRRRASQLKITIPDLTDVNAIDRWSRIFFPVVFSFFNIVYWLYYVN
T1 sequence (P18507 whole entry): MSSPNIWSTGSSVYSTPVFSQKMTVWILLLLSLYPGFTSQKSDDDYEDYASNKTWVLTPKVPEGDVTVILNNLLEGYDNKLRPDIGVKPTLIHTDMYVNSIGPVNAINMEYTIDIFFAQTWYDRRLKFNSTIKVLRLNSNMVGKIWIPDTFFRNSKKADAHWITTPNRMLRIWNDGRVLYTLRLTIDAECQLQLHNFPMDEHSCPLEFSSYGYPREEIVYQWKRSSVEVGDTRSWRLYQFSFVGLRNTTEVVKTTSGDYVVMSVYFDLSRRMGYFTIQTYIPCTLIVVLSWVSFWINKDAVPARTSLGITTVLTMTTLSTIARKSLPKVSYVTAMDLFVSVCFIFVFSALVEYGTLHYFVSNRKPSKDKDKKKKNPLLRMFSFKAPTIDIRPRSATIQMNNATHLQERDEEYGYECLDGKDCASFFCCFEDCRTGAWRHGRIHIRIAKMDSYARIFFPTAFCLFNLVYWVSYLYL
T1 sequence (P47869 whole entry): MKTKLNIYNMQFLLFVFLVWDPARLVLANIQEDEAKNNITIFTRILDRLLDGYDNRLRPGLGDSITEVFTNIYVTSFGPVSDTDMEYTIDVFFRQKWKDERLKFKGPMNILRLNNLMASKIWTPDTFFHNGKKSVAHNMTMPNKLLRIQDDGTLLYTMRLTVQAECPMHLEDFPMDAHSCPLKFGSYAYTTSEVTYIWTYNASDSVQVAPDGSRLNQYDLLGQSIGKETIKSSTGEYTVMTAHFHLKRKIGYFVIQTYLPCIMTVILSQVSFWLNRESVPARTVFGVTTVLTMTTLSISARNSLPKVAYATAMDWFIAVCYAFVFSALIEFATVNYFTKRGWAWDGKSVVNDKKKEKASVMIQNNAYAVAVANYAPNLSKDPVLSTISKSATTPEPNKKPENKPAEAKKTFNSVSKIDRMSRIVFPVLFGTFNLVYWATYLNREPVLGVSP

[6] = system: Escherichia coli; test: microbe, parasite or virus in culture; remark: listed apart in the source
Description: Antimicrobial activity against Escherichia coli expressing beta-lactamase TEM-47 by CLSI broth microdilution method

[7] = system: Escherichia coli; test: microbe, parasite or virus in culture; remark: listed apart in the source
Description: Antimicrobial activity against Escherichia coli expressing beta-lactamase PER-2 by CLSI broth microdilution method

[8] = system: Escherichia coli; test: microbe, parasite or virus in culture; remark: listed apart in the source
Description: Antimicrobial activity against Escherichia coli expressing beta-lactamase SHV-12 by CLSI broth microdilution method

[9] = system: Escherichia coli; test: microbe, parasite or virus in culture; remark: listed apart in the source
Description: Antimicrobial activity against Escherichia coli expressing beta-lactamase DHA by CLSI broth microdilution method

[10] = system: Escherichia coli; test: Antimicrobial activity against Escherichia coli expressing beta-lactamase KPC-2 by CLSI broth microdilution method; assay type: functional
[11] = system: Escherichia coli; test: microbe, parasite or virus in culture; remark: listed apart in the source
Description: Antimicrobial activity against Escherichia coli expressing beta-lactamase Oxa-18 by CLSI broth microdilution method

[12] = system: Escherichia coli; test: microbe, parasite or virus in culture; remark: listed apart in the source
Description: Antimicrobial activity against Escherichia coli expressing beta-lactamase IMI-1 by CLSI broth microdilution method

[13] = system: Escherichia coli; test: microbe, parasite or virus in culture; remark: listed apart in the source
Description: Antimicrobial activity against Escherichia coli expressing beta-lactamase Oxa-23 by CLSI broth microdilution method

[14] = system: Escherichia coli; test: Antimicrobial activity against Escherichia coli expressing beta-lactamase NDM-1 by CLSI broth microdilution method; assay type: functional
[15] = system: Escherichia coli; test: microbe, parasite or virus in culture; remark: listed apart in the source
Description: Antimicrobial activity against Escherichia coli expressing beta-lactamase Oxa-146 by CLSI broth microdilution method

[16] = system: Escherichia coli; test: microbe, parasite or virus in culture; remark: listed apart in the source
Description: Antimicrobial activity against Escherichia coli expressing beta-lactamase PER-1 by CLSI broth microdilution method

[17] = system: Escherichia coli; test: microbe, parasite or virus in culture; remark: listed apart in the source
Description: Antimicrobial activity against Escherichia coli expressing beta-lactamase CTXM-3 by CLSI broth microdilution method

[18] = system: Escherichia coli; test: microbe, parasite or virus in culture; remark: listed apart in the source
Description: Antimicrobial activity against Escherichia coli expressing beta-lactamase GES-1 by CLSI broth microdilution method

[19] = system: Escherichia coli; test: microbe, parasite or virus in culture; remark: listed apart in the source
Description: Antimicrobial activity against wild type Escherichia coli by CLSI broth microdilution method

[20] = system: Escherichia coli; test: microbe, parasite or virus in culture; remark: listed apart in the source
Description: Antimicrobial activity against Escherichia coli expressing beta-lactamase TEM-121 by CLSI broth microdilution method

[21] = system: Escherichia coli; test: microbe, parasite or virus in culture; remark: listed apart in the source
Description: Antimicrobial activity against Escherichia coli expressing beta-lactamase AmpC by CLSI broth microdilution method

[22] = system: Escherichia coli; test: microbe, parasite or virus in culture; remark: listed apart in the source
Description: Antimicrobial activity against Escherichia coli expressing beta-lactamase KPC-3 by CLSI broth microdilution method

[23] = system: Escherichia coli; test: microbe, parasite or virus in culture; remark: listed apart in the source
Description: Antimicrobial activity against Escherichia coli expressing beta-lactamase SME-1 by CLSI broth microdilution method

[24] = system: Escherichia coli; test: microbe, parasite or virus in culture; remark: listed apart in the source
Description: Antimicrobial activity against Escherichia coli expressing beta-lactamase Oxa-40 by CLSI broth microdilution method

[25] = system: Escherichia coli; test: microbe, parasite or virus in culture; remark: listed apart in the source
Description: Antimicrobial activity against Escherichia coli expressing beta-lactamase Oxa-181 by CLSI broth microdilution method

[26] = system: Escherichia coli; test: Antimicrobial activity against Escherichia coli expressing beta-lactamase NDM-5 by CLSI broth microdilution method; assay type: functional
[27] = system: Escherichia coli; test: microbe, parasite or virus in culture; remark: listed apart in the source
Description: Antimicrobial activity against Escherichia coli expressing beta-lactamase KPC-4 by CLSI broth microdilution method

[28] = system: Escherichia coli; test: microbe, parasite or virus in culture; remark: listed apart in the source
Description: Antimicrobial activity against Escherichia coli expressing beta-lactamase VEB-7 by CLSI broth microdilution method

[29] = system: Pseudomonas aeruginosa; test: Antimicrobial activity against Pseudomonas aeruginosa ATCC 27853 by CLSI broth microdilution method; assay type: functional
[30] = system: Pseudomonas aeruginosa; test: Antimicrobial activity against Pseudomonas aeruginosa expressing nalB/delta-mexXY/delta-mexCDoprJ/delta-ampC by CLSI broth microdilution method; assay type: functional
[31] = system: Pseudomonas aeruginosa; test: Antimicrobial activity against Pseudomonas aeruginosa expressing delta-mexB/mexXY/delta-ampDh2/ delta-ampD by CLSI broth microdilution method; assay type: functional

Row | SMILES | MIC [1] | MIC [2] | MIC [3] | half-life [4] | IC50 [5] | MIC [6] | MIC [7] | MIC [8] | MIC [9] | MIC [10] | MIC [11] | MIC [12] | MIC [13] | MIC [14] | MIC [15] | MIC [16] | MIC [17] | MIC [18] | MIC [19] | MIC [20] | further results
1 | N=C(N)NCc1cn(C[C@@H]2[C@H](NC(=O)/C(=N\OC3(C(=O)O)CC3)c3csc(N)n3)C(=O)N2S(=O)(=O)O)nn1 (stereo in doubt) | 8 µg/mL (≈ 14 µM) | 8 µg/mL (≈ 14 µM) | 0.25 µg/mL (≈ 0.437 µM) | 3.71 days | 890 µM | 0.25 µg/mL (≈ 0.437 µM) | > 64 µg/mL | 0.5 µg/mL (≈ 0.875 µM) | 4 µg/mL (≈ 7 µM) | 0.125 µg/mL (≈ 0.219 µM) | 1 µg/mL (≈ 1.75 µM) | 0.06 µg/mL (≈ 0.105 µM) | 0.25 µg/mL (≈ 0.437 µM) | 0.125 µg/mL (≈ 0.219 µM) | 1 µg/mL (≈ 1.75 µM) | 32 µg/mL (≈ 56 µM) | 0.25 µg/mL (≈ 0.437 µM) | 0.06 µg/mL (≈ 0.105 µM) | 0.125 µg/mL (≈ 0.219 µM) | 1 µg/mL (≈ 1.75 µM) | MIC [21]: 0.125 µg/mL (≈ 0.219 µM); MIC [22]: 0.125 µg/mL (≈ 0.219 µM); MIC [23]: 0.06 µg/mL (≈ 0.105 µM); MIC [24]: 0.125 µg/mL (≈ 0.219 µM); MIC [25]: 0.25 µg/mL (≈ 0.437 µM); MIC [26]: 0.25 µg/mL (≈ 0.437 µM); MIC [27]: 2 µg/mL (≈ 3.5 µM); MIC [28]: 32 µg/mL (≈ 56 µM)
2 | N=C(N)NCc1cnn(C[C@@H]2[C@H](NC(=O)/C(=N\OC3(C(=O)O)CC3)c3csc(N)n3)C(=O)N2S(=O)(=O)O)n1 (stereo in doubt) | 4 µg/mL (≈ 7 µM) | 16 µg/mL (≈ 28 µM) | 0.125 µg/mL (≈ 0.219 µM) | 20.2 days | 190 µM | 0.125 µg/mL (≈ 0.219 µM) | > 64 µg/mL | 0.25 µg/mL (≈ 0.437 µM) | 8 µg/mL (≈ 14 µM) | 0.125 µg/mL (≈ 0.219 µM) | 0.5 µg/mL (≈ 0.875 µM) | 0.06 µg/mL (≈ 0.105 µM) | 0.25 µg/mL (≈ 0.437 µM) | ≤ 0.06 µg/mL | 4 µg/mL (≈ 7 µM) | 64 µg/mL (≈ 112 µM) | 0.25 µg/mL (≈ 0.437 µM) | 0.06 µg/mL (≈ 0.105 µM) | 0.06 µg/mL (≈ 0.105 µM) | 0.5 µg/mL (≈ 0.875 µM) | MIC [29]: 2 µg/mL (≈ 3.5 µM); MIC [30]: 16 µg/mL (≈ 28 µM); MIC [31]: 32 µg/mL (≈ 56 µM); MIC [21]: 0.5 µg/mL (≈ 0.875 µM); MIC [22]: 0.125 µg/mL (≈ 0.219 µM); MIC [23]: 0.06 µg/mL (≈ 0.105 µM); MIC [24]: 0.125 µg/mL (≈ 0.219 µM); MIC [25]: 0.125 µg/mL (≈ 0.219 µM); MIC [26]: 0.25 µg/mL (≈ 0.437 µM); MIC [27]: 4 µg/mL (≈ 7 µM); MIC [28]: 32 µg/mL (≈ 56 µM)
3 | NC[C@@H]1CN(C[C@@H]2[C@H](NC(=O)/C(=N\OC3(C(=O)O)CC3)c3csc(N)n3)C(=O)N2S(=O)(=O)O)C(=O)O1 (stereo in doubt) | > 32 µg/mL | 32 µg/mL (≈ 58.4 µM) | ≤ 0.06 µg/mL | 6.54 days | 1340 µM | ≤ 0.06 µg/mL | > 32 µg/mL | 0.25 µg/mL (≈ 0.457 µM) | 0.25 µg/mL (≈ 0.457 µM) | 0.125 µg/mL (≈ 0.228 µM) | 0.5 µg/mL (≈ 0.913 µM) | 0.125 µg/mL (≈ 0.228 µM) | ≤ 0.06 µg/mL | 0.125 µg/mL (≈ 0.228 µM) | 2 µg/mL (≈ 3.65 µM) | > 64 µg/mL | ≤ 0.06 µg/mL | 0.06 µg/mL (≈ 0.11 µM) | 0.125 µg/mL (≈ 0.228 µM) | ≤ 0.06 µg/mL | MIC [29]: 32 µg/mL (≈ 58.4 µM); MIC [30]: > 64 µg/mL; MIC [31]: > 32 µg/mL; MIC [21]: 0.125 µg/mL (≈ 0.228 µM); MIC [22]: 0.125 µg/mL (≈ 0.228 µM); MIC [23]: 0.06 µg/mL (≈ 0.11 µM); MIC [24]: 0.125 µg/mL (≈ 0.228 µM); MIC [25]: 0.25 µg/mL (≈ 0.457 µM); MIC [26]: 0.25 µg/mL (≈ 0.457 µM); MIC [27]: 1 µg/mL (≈ 1.83 µM); MIC [28]: 32 µg/mL (≈ 58.4 µM)
4 | Nc1nc(/C(=N/OC2(C(=O)O)CC2)C(=O)N[C@@H]2C(=O)N(S(=O)(=O)O)[C@@H]2CN2CCOC2=O)cs1 (stereo in doubt) [ANCREMONAM] | 8 µg/mL (≈ 15.4 µM) | 8 µg/mL (≈ 15.4 µM) | 0.125 µg/mL (≈ 0.241 µM) | 16.7 days | > 2400 µM | 0.125 µg/mL (≈ 0.241 µM) | 128 µg/mL (≈ 247 µM) | 0.5 µg/mL (≈ 0.964 µM) | 0.5 µg/mL (≈ 0.964 µM) | 0.125 µg/mL (≈ 0.241 µM) | 0.5 µg/mL (≈ 0.964 µM) | 0.125 µg/mL (≈ 0.241 µM) | 0.125 µg/mL (≈ 0.241 µM) | 0.125 µg/mL (≈ 0.241 µM) | 2 µg/mL (≈ 3.86 µM) | 64 µg/mL (≈ 123 µM) | 0.125 µg/mL (≈ 0.241 µM) | 0.125 µg/mL (≈ 0.241 µM) | 0.125 µg/mL (≈ 0.241 µM) | 0.25 µg/mL (≈ 0.482 µM) | MIC [29]: 32 µg/mL (≈ 61.7 µM); MIC [30]: ≥ 64 µg/mL; MIC [31]: 64 µg/mL (≈ 123 µM); MIC [21]: 0.25 µg/mL (≈ 0.482 µM); MIC [22]: 0.25 µg/mL (≈ 0.482 µM); MIC [23]: 0.125 µg/mL (≈ 0.241 µM); MIC [24]: 0.125 µg/mL (≈ 0.241 µM); MIC [25]: 0.125 µg/mL (≈ 0.241 µM); MIC [26]: 0.125 µg/mL (≈ 0.241 µM); MIC [27]: 0.5 µg/mL (≈ 0.964 µM); MIC [28]: 16 µg/mL (≈ 30.9 µM)
